Assay results as given in paper PMC12320831, “Synthesis and Biological Evaluation of New Chalcogen Semicarbazone (S, Se) and Their Azole Derivatives against Chagas Disease” (Journal of Medicinal Chemistry, 2024).
Read-outs that look alike come from different tables or passages of the source.

System: T. cruzi CAI/72 strain
Experiment: Antiparasitic activity in C2C12 cells infected with T. cruzi CAI/72 (image-based assay)
Format: cell-based
Details: for EC50: read-out: EC50 Tc CAI/72, intracellular amastigotes in C2C12 cells, 48 h, mean of three experiments in triplicate (n = 9) ± SD

`C/C(=N\Nc1nc(C)c[se]1)c1cccc([N+](=O)[O-])c1.Cl` [Se2h, (E)-4-Methyl-2-(2-(1-(3-nitrophenyl)ethylidene)hydrazineyl)-1,3-selenazole Hydrochloride] gave an inhibition at 10 µM (Trypanosoma cruzi, C2C12, read-out: Anti-Tc CAI/72 activity (%)) of 57.7%, an EC50 of 310 ± 180 nM and an EC50 (listed as Se 2h) of under 1000 nM.
